Results on three compounds are retold here after US20250034165A1, “COMPOUND CONTAINING CYCLOALKYL OR HALOALKYL” (CHIA TAI TIANQING PHARMACEUTICAL GROUP CO., LTD., priority 2021, published 2025).

Bounds are passed on as bounds.

Data set [1] has as its target EGFR (d746-750 (d19)/T790M) (Homo sapiens (Human), UniProt P00533, DEL746-750/T790M). The experiment in a line: Inhibitory activity for EGFR (d746-750 (d19)/T790M) kinase. It counts as biochemical. The settings on record: ATP 5 μM. The essentials: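 Recombinant EGFR d746-750/T790M (0.003 ng/μL final) preincubated 30 min with compound (10 to 0.0024 nM, 4-fold steps), then 5 μM ATP and 0.1 μM ULight-poly GT added for 2 h at room temperature. EDTA stop, Eu-anti-phosphotyrosine TR-FRET read (665 nm); IC50 by four-parameter fit.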

The target in data set [2] is EGFR (d746-750/T790M/C797S) (Homo sapiens (Human), UniProt P00533, C797S/DEL746-750/T790M). Briefly: Inhibitory activity for EGFR (d746-750/T790M/C797S) kinase. It is filed as biochemical. The settings on record: ATP 5 μM; read-out: EGFR(d19/T790M/C797S) (IC50). In outline:
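EGFR d746-750/T790M/C797S (0.03 ng/μL final) preincubated 30 min with compound (10 nM–0.0024 nM, 4-fold, 7 points). Reaction with 5 μM ATP and 0.1 μM ULight-poly GT, 2 h at room temperature; EDTA stop, Eu-anti-phosphotyrosine TR-FRET read at 665 nm, IC50 by four-parameter fit.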

Data set [3] deals with BAF3-EGFR (L858R/T790M/C797S) cells. The experiment in a line: Inhibition of proliferation of BAF3-EGFR (L858R/T790M/C797S) cells, CCK-8. Conditions: Ba/F3 EGFR, 72 h, read-out: BAF3(EGFR T790M L858R C797S) cell inhibitory activity IC50. It counts as cell-based. In outline: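 BaF3 EGFR L858R/T790M/C797S cells seeded at 1.5×10^5 cells/mL in RPMI + 10% FBS, 37 °C, compound added after overnight, duplicates. Viability by CCK-8; % inhibition vs untreated and blank, IC50 by four-parameter fit.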

Data set [4] concerns BAF3-EGFR (del19/T790M/C797S) cells. The experiment in a line: Inhibition of proliferation of BAF3-EGFR (Del19/T790M/C797S) cells, CCK-8. It is filed as cell-based. Conditions: Ba/F3 EGFR-Del19/T790M/C797S, 72 h, read-out: BAF3(EGFR T790M Del19 C797S) cell inhibitory activity IC50. The essentials:
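Cells seeded at 1.0×10^5 cells/mL in RPMI + 10% FBS, cultured overnight at 37° C, 5% CO2, then compound added in duplicate wells, with untreated cells as negative control. Inhibition rate calculated against negative-control and blank means. IC50 obtained from four-parameter fit of inhibition versus log concentration.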

For data set [5], the system named is PC-9 EGFR-Del19-T790M-C797S cells. Briefly: Inhibition of proliferation of PC-9-EGFR (Del19 T790M C797S) cells, CCK-8. It counts as cell-based. The settings on record: 72 h, read-out: PC-9-EGFR (Del19 T790M C797S) cell inhibitory activity IC50. The essentials:
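Cells seeded at 2×10^4 cells/mL were treated 72 h with compound at 1000 nM-0.06 nM final, in replicate wells. CCK-8 absorbance at 450 nm after 2 h gave inhibition rate relative to negative control and blank. IC50 from four-parameter fit against log concentration.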

For the next data set, the system named is NCI-H1975(L858R T790M). The experiment in a line: Nude mouse subcutaneous xenograft tumor model of NCI-H1975 cells. It counts as in vivo, nude mice. The settings on record: once a day, 14 days. The source says:
Evaluation on drug effect on nude mouse subcutaneous xenograft tumor model of NCI-H1975 cells: NCI-H1975 cells were inoculated subcutaneously in the right axilla of SPF-grade female nude mice (source: Jiangsu Huachuang Sino Pharmaceutical Technology Co., Ltd.) at 1×10^6 cells/mouse. When the mean tumor volume reached about 200 mm^3, the animals were grouped.
(§1) The day of grouping was defined as day 0, and intragastric administration was started on day 0 and performed once a day. The tumor volume was measured 2-3 times a week, meanwhile, the mice were weighed and the data were recorded; the general behavior of the mice was observed and recorded every day. After the experiment was completed, the tumors were removed, weighed, and photographed.
(§2) Tumor volume TV (mm^3)=½×(a×b^2),
(§3) Relative tumor volume RTV=TVt/TV0,
(§4) Relative tumor proliferation rate T/C (%)=(TRTV/CRTV)×100%,
(§5) Tumor growth inhibition rate TGI (%)=(1−TW/TW0)×100%;

Data set [6] can be described thus: In vitro stability in liver microsomes. It counts as in vitro ADME. The settings on record: Human liver microsome. The procedure: 300 μL of the final incubation system contains 30 μL of liver microsomes (protein concentration: 0.15 mg/mL), 30 μL of NADPH+MgCl2, 3 μL of the test compound (in acetonitrile), and 237 μL of PBS buffer (pH 7.4). The proportion of the organic solvent (acetonitrile) was 1%. Samples were prepared in duplicate of 0.3 mL for each species (e.g., human or mouse liver microsomes). Tubes each containing 270 μL of a mixed solution of substrate and enzyme […] were pre-incubated at 37° C. for 5 min. 30 μL of NADPH+MgCl2 was added and the mixture was mixed. 50 μL of the mixture was taken at 0 min, 15 min, 30 min, and 60 min, and 300 μL of glacial acetonitrile containing an internal standard was added to terminate the reaction.
50 μL of the incubated sample was added with 300 μL of glacial acetonitrile containing an internal standard (20 ng/mL diazepam) for precipitation. The mixture was vortexed for 5 min, and centrifuged (12,000 rpm, 4° C.) for 10 min. 75 μL of supernatant was taken and diluted with 75 μL of ultrapure water. After being homogeneously mixed, 0.5 μL of the resulting sample was injected for analysis.
(In general: Liver microsomes are vesicles of endoplasmic reticulum, rich in cytochrome P450 enzymes.)

Data set [7] in a line: In vivo pharmacokinetics in ICR mice. Conditions: mouse, plasma, PO, 10 mg/kg intragastric. The essentials: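 ICR mice (18–20 g, 9 per group, fasted 12 h) received 10 mg/kg of compound intragastrically. Orbital blood was taken from 0 min to 24 h and EDTA-K2 plasma was prepared. Plasma was precipitated with acetonitrile containing diazepam as internal standard and analysed by LC/MS/MS.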

Data set [8] has as its system PC9-EGFR (del19-T790M-C797S). Briefly: Nude mouse subcutaneous xenograft tumor model of PC9-EGFR (del19-T790M-C797S) tumor mass. It is filed as in vivo, nude mice.
Description: Evaluation on drug effect on nude mouse subcutaneous xenograft tumor model of PC9-EGFR (del19-T790M-C797S) tumor mass: PC9-EGFR (del19-T790M-C797S) cells were inoculated subcutaneously in the right axilla of SPF-grade female nude mice (source: Laboratory Animal Operation Department, Shanghai Institute for Biomedical and Pharmaceutical Technologies) at 1×10^7 cells/mouse for the F1 generation. The nude mouse tumor tissue of the F1 generation was taken out, and the necrotic tissue was removed. Then the rest of the tumor tissue was cut into tumor masses of about 1.5-2 mm and inoculated subcutaneously in the right axilla of the nude mice. When the mean tumor volume reached about 200 mm^3, the animals were grouped.
as §1, §2, §3, §4, §5

[9] abbreviates: 15 mpk*4 + 10 mpk*25 (i.g), 29 days.

EGFR (d746-750 (d19)/T790M), sequence (P00533 other isoform, or with tags, fused parts or gaps T790M/del 1-668/del 746-750 limits assumed): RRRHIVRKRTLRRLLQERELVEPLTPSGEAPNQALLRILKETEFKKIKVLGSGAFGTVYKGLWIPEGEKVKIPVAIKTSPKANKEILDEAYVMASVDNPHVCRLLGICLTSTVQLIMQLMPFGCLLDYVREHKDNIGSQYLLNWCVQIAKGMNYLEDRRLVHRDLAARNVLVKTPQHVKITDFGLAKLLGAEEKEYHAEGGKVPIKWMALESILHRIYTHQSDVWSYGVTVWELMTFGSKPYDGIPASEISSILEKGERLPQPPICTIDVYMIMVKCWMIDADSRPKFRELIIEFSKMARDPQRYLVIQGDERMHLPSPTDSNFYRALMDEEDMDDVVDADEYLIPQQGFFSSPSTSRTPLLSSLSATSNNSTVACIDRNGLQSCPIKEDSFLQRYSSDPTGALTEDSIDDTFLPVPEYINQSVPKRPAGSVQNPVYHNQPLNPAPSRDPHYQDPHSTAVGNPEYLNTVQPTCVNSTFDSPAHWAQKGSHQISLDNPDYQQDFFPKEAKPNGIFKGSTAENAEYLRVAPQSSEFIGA
EGFR (d746-750/T790M/C797S), sequence (P00533 other isoform, or with tags, fused parts or gaps T790M/C797S/del 1-694/del 746-750 limits assumed): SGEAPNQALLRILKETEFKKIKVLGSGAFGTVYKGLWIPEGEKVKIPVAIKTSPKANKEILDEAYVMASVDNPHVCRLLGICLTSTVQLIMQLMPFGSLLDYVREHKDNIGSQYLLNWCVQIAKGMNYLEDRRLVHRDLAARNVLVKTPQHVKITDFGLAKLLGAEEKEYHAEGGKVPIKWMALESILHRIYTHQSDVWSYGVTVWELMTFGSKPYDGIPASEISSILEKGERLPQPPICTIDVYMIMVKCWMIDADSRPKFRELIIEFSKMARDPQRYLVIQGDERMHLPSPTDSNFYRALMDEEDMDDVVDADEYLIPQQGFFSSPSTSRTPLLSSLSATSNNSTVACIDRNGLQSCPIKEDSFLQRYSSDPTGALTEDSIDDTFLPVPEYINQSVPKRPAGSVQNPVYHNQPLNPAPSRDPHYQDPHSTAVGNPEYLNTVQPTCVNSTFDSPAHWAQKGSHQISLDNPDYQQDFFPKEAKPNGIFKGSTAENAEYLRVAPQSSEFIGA

For the compound `Cc1cc2cc(n1)-c1cnn(C)c1OCCC[C@@H](C1CC1)CN1/C(=N/C2=O)Nc2ccc(N(C)CCN(C)C)cc21` [Example 45], the IC50 in data set [1] was 0.013 nM; in data set [2], 0.018 nM; in data set [3] it was < 5 nM; in data set [4], < 1 nM; in data set [5] it was < 50 nM. Moreover, in the data set on NCI-H1975(L858R T790M) (10 mpk (i.g)), the “Tumor growth inhibition % (tumor weight, d 14)” value is listed as 76.2% (tumor. Also, in the data set with NCI-H1975(L858R T790M) (10 mpk (i.g)), the “Tumor growth inhibition % (volume, d 12)” value amounted to 76.6%.
As for `Cc1cc2cc(n1)-c1cnn(C)c1OCCC[C@@H](C1CC1)CN1/C(=N/C2=O)Nc2cc(NC3CCN(C(C)C)CC3)ccc21` [Example 47], the IC50 in [1] was 0.017 nM; in data set [2], 0.027 nM; in data set [3] it was < 5 nM; in data set [4] it was < 1 nM; in data set [5] it was < 50 nM. Also, in data set [6], the “Stability in liver microsomes (residual %, T = 60 min)” value was found to be 96.11%.
One may read the AUC(0-inf) as the area under the concentration-time curve extrapolated to infinity. A word on the AUC(0-t): it is exposure summed from dosing to a finite time, without extrapolation to infinity. Broadly, the Cmax is the highest concentration seen after dosing. As a reminder, the Tmax is the time at which the peak concentration occurs. As to `Cc1cc2cc(n1)-c1cnn(C)c1OCCC[C@@H](C1CC1)CN1/C(=N/C2=O)Nc2ccc(N[C@@H](C)CN(C)C)cc21` [Example 66], the IC50 in [3] was < 5 nM; in data set [4] it was < 1 nM; in data set [5], < 50 nM. This compound also registered an area under the curve AUC(0-inf) in data set [7] of 2200 ng·h/mL. In addition, in data set [7] (read-out: AUC(0-t)), the area under the curve AUC(0-t) is 2040 ng·h/mL. Besides, the Cmax in [7] (read-out: Cmax) is 143 ng/mL. In data set [7] (read-out: MRT(0-t)), the MRT last amounted to 8.26 h. Further, the Tmax in [7] (read-out: Tmax) was found to be 6 h. The half-life in [7] (read-out: T½ (converted)) was 5.98 h. Moreover, the “Tumor growth inhibition % (tumor weight, d 14)” value is on record as 73.5% (tumor with NCI-H1975(L858R T790M) (5 mpk (i.g)) and 87.5% (tumor with NCI-H1975(L858R T790M) (10 mpk (i.g)). Further, the “Tumor growth inhibition % (volume, d 12)” value with NCI-H1975(L858R T790M) (5 mpk (i.g)) is given as 71.3%; with NCI-H1975(L858R T790M) (10 mpk (i.g)) it was 86.2%. Further, the “Tumor growth inhibition % (tumor weight, d 29)” value in data set [8] (setting [9]) is reported as 95.8% (tumor weight, d 29); in data set [8] (30 mpk*4 (i.g), 4 days) it was 56.5%. Also, the “Tumor growth inhibition % (volume, d 27)” value was 94.3% (volume, d 27) in data set [8] (setting [9]) and 60.0% (volume, d 27) in [8] (30 mpk*4 (i.g), 4 days).
